These results are taken from ChEMBL document CHEMBL1147379, “Antineoplastic agents, 256. Cell growth inhibitory isocarbostyrils from Hymenocallis” (1993).

One experiment deals with P388. As to the kind of experiment: Growth inhibition of mouse P388 cells. The class given is functional. As to conditions: read-out: ED50 (the source's name).
A further experiment relates to M5076. Kind of experiment: Growth inhibition of mouse M5076 cells. The class given is functional, cell-based.

In brackets after ≈: the same amount, converted by molar mass. Activity calls are given as the source filed them. No cut-off for these calls is given here.

For the compound `O=C1N[C@H]2[C@H](O)[C@H](O)[C@@H](O)C[C@@H]2c2cc3c(c(O)c21)OCO3`, the EC50 in the experiment on P388 turned out to be 0.02 µg/mL (≈ 0.0647 µM).
With `O=C1N[C@H]2[C@H](O)[C@H](O)[C@@H](O)[C@H](O)[C@@H]2c2cc3c(c(O)c21)OCO3` [PANCRATISTATIN], the outcome in the experiment on M5076 was Active. Besides, in the experiment on P388, the EC50 amounted to 0.01 µg/mL (≈ 0.0307 µM).
